According to PubChem BioAssay AID1963423 (Molecular Pharmacology Branch, DTP, NCI, 2024):

Tested on: 439559-082-T-J2-PDC complex spheroid growth
Test: Anticancer human tumor 439559-082-T-J2-PDC patient-derived colon adenocarcinoma cell line growth inhibition [Asc]
Settings: for IC50: curve of first compound; for viability, T/C: stronger effect = lower value
Method: Multicellular complex tumor spheroid response to apoptosis pathway targeting inhibitors Alrizomadlin, Pelcitoclax, and Dasminapant in combination with a variety of drugs and investigational agents in selected tumor cell lines
The MDM2 inhibitor alrizomadlin, the Bcl-2/Bcl-xL inhibitor pelcitoclax, and the IAPs inhibitor dasminapant were evaluated both individually and in combination with standard of care and investigational anticancer small molecules within a complex spheroid model of solid tumors. . Complex spheroids include a stromal component modeled by human endothelial cells (HUVEC) and fibroblasts modeled by human mesenchymal stem cells (MSCs). The concentration ranges selected for each drug and investigational agent were based upon clinically achievable concentrations if the clinical Cmax of the agent was known.
Compounds. The drugs and investigational agents: alrizomadlin (APG-115; NSC831270), pelcitoclax (APG-1252; NSC835773), dasminapant (APG-1387;NSC834197), TAK-243 (NSC785004), copanlisib (NSC809693), olaparib (NSC753686), talazoparib (NSC767125), cobimetinib (NSC 768068), eltanexor (KPT-8602, NSC 794443), abemaciclib (NSC 768073), sotorasib (NSC818433), adagrasib (NSC 831453), MRTX-1133 (NSC 836407), Iadademestat (ORY1001, NSC 806812), and RMC-4630 (NSC839698), were obtained from the NCI Developmental Therapeutics Program Chemical Repository. The FDA-approved anticancer drug set is available from the Developmental Therapeutics Program at https://dtp.cancer.gov/organization/dscb/obtaining/available plates.htm. […] The stock solutions were prepared in dimethyl sulfoxide (DMSO, Sigma-Aldrich, St. Louis, MO, cat. D2650) at 800-fold the tested concentration and stored at -70 degrees C prior to their use. All drugs and investigational agents were tested over a range starting from a high concentration at or near the clinical Cmax and decreasing in half-log increments. If the clinical Cmax for an agent had not been determined, the highest concentration tested was 10 microM.
The patient-derived cancer (PDC) cell lines include five colon adenocarcinomas: 186277-243-T-J2-PDC, 616215-338-R-J1-PDC, 439559-082-T-J2-PDC, 463943-066-T-J2-PDC, and 519858-162-T-J1-PDC; three pancreatic carcinomas: 323965-272-R-J2-PDC, 521955-158-R6-J3-PDC, and 521955-158-R2-J5-PDC; two uterine sarcomas: 327498-152-R-J2-PDC and 993429-296-R-J1-PDC; two rhabdomyosarcomas: 755483-174-R-J1-PDC and 772245-204-R-J1-PDC; two soft tissue sarcomas: 126254-015-R-J1-PDC and 494315-158-R-J1-PDC; two malignant fibrous histiocytomas: 317291-083-R-J1-PDC and 596521-263-R-J1-PDC; two breast carcinomas: 171881-019-R-J1-PDC and 885512-296-R-J2-PDC; and one ovarian carcinoma: 6556581-035-R-J-PDC were obtained from the NCI PDMR, (https://pdmr.cancer.gov). The established cell lines HSSY-2 synovial sarcoma (RRID:CVCL 8719), SYO-1 synovial sarcoma (RRID:CVCL_7146), MPNST malignant peripheral neural sheath tumor were obtained from the Sloan Kettering Institute. The following established cell lines were purchased from the American Type Culture Collection (ATCC, Manassas, VA), Sor the received from the NCI repository:, PANC-1 pancreatic carcinoma (CRL-1469, RRID:CVCL_0480), OVCAR-5 ovarian carcinoma (RRID:CVCL_1628), OVCAR-8 ovarian carcinoma (RRID:CVCL_1629), , MCF-7 breast carcinoma (CRL-12584, RRID:CVCL_0031), MDA-MB-231 breast carcinoma (CRL-12532, RRID:CVCL_0062), NCI-H1876 small cell lung carcinoma (CRL-5902, RRID:CVCL_1503), NCI-H510A small cell lung carcinoma (HTB-184, RRID:CVCL_1565), NCI-H1417 (CRL-5869, RRID:CVCL_1469), and NCI-H196 small cell lung carcinoma (CRL-5823, RRID:CVCL_1509). Dr. Peter Houghton (Greehey Children's Cancer Research Institute, University of Texas Health Science Center, San Antonio, TX) provided Rh-18 rhabdomyosarcoma (RRID:CVCL_1659). Pooled donor human umbilical vein endothelial cells (HUVEC, Lonza, cat. CC-2519) and human mesenchymal stem cells (hMSC, Lonza, cat. PT-2501) were purchased from Lonza (Walkersville, MD).
Cell Culture. […]

[1] = second compound 0.03 µM, first compound 0.00316 µM
[2] = second compound 0.03 µM, first compound 0.01 µM
[3] = second compound 0.03 µM, first compound 0.0316 µM
[4] = second compound 0.03 µM, first compound 0.1 µM
[5] = second compound 0.03 µM, first compound 0.316 µM
[6] = second compound 0.03 µM, first compound 1 µM
[7] = second compound 0.0949 µM, first compound 0.00316 µM
[8] = second compound 0.0949 µM, first compound 0.01 µM
[9] = second compound 0.0949 µM, first compound 0.0316 µM
[10] = second compound 0.0949 µM, first compound 0.1 µM
[11] = second compound 0.0949 µM, first compound 0.316 µM
[12] = second compound 0.0949 µM, first compound 1 µM
[13] = second compound 0.3 µM, first compound 0.00316 µM
[14] = second compound 0.3 µM, first compound 0.01 µM
[15] = second compound 0.3 µM, first compound 0.0316 µM
[16] = second compound 0.3 µM, first compound 0.1 µM
[17] = second compound 0.3 µM, first compound 0.316 µM
[18] = second compound 0.3 µM, first compound 1 µM
[19] = second compound 0.949 µM, first compound 0.00316 µM
[20] = second compound 0.949 µM, first compound 0.01 µM
[21] = second compound 0.949 µM, first compound 0.0316 µM
[22] = second compound 0.949 µM, first compound 0.1 µM
[23] = second compound 0.949 µM, first compound 0.316 µM
[24] = second compound 0.949 µM, first compound 1 µM
[25] = second compound 3 µM, first compound 0.00316 µM
[26] = second compound 3 µM, first compound 0.01 µM
[27] = second compound 3 µM, first compound 0.0316 µM
[28] = second compound 3 µM, first compound 0.1 µM
[29] = second compound 3 µM, first compound 0.316 µM
[30] = second compound 3 µM, first compound 1 µM
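Note: spheroids exposed to agents for 7 days starting day 3 after seeding.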
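Throughout, for viability, T/C: percent of DMSO vehicle control viability with 100% = vehicle.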

| Structure (SMILES) | IC50 (second compound 0.03 µM) [µM] | IC50 (second compound 0.0949 µM) [µM] | IC50 (second compound 0.3 µM) [µM] | IC50 (second compound 0.949 µM) [µM] | IC50 (second compound 3 µM) [µM] | viability, T/C [1] [%] | viability, T/C [2] [%] | viability, T/C [3] [%] | viability, T/C [4] [%] | viability, T/C [5] [%] | viability, T/C [6] [%] | viability, T/C [7] [%] | viability, T/C [8] [%] | viability, T/C [9] [%] | viability, T/C [10] [%] | viability, T/C [11] [%] | viability, T/C [12] [%] | viability, T/C [13] [%] | viability, T/C [14] [%] | viability, T/C [15] [%] | further results |
| --- | --- | --- | --- | --- | --- | --- | --- | --- | --- | --- | --- | --- | --- | --- | --- | --- | --- | --- | --- | --- | --- |
| CCN1CCN(Cc2ccc(Nc3ncc(F)c(-c4cc(F)c5nc(C)n(C(C)C)c5c4)n3)nc2)CC1 + CCN1C(C(=O)NC23CCC(C(=O)O)(CC2)CC3)C(c2cccc(Cl)c2F)C2(C(=O)Nc3cc(Cl)ccc32)C12CCCCC2 | > 1 | > 1 | > 1 | > 1 | > 1 | 107 | 105 | 94.4 | 88.9 | 85.7 | 83 | 104 | 107 | 98.8 | 80.7 | 94 | 84.8 | 99.1 | 106 | 115 | viability, T/C [16]: 87.2%; viability, T/C [17]: 86.8%; viability, T/C [18]: 85%; viability, T/C [19]: 99.2%; viability, T/C [20]: 102%; viability, T/C [21]: 114%; viability, T/C [22]: 93.5%; viability, T/C [23]: 96.7%; viability, T/C [24]: 90%; viability, T/C [25]: 87.5%; viability, T/C [26]: 94%; viability, T/C [27]: 105%; viability, T/C [28]: 80.7%; viability, T/C [29]: 87%; viability, T/C [30]: 84.7% |
| O=C(c1ccc(F)c(F)c1Nc1ccc(I)cc1F)N1CC(O)([C@@H]2CCCCN2)C1 + CCN1C(C(=O)NC23CCC(C(=O)O)(CC2)CC3)C(c2cccc(Cl)c2F)C2(C(=O)Nc3cc(Cl)ccc32)C12CCCCC2 | 0.223 | 0.233 | 0.235 | 0.172 | 0.0976 | 103 | 101 | 83.8 | 61.6 | 46.9 | 22.5 | 111 | 106 | 84.8 | 58.2 | 52.6 | 16.3 | 98.7 | 110 | 91.7 | viability, T/C [16]: 64.3%; viability, T/C [17]: 47.2%; viability, T/C [18]: 8.43%; viability, T/C [19]: 111%; viability, T/C [20]: 93.5%; viability, T/C [21]: 88.4%; viability, T/C [22]: 54.5%; viability, T/C [23]: 41.1%; viability, T/C [24]: 16.2%; viability, T/C [25]: 96.8%; viability, T/C [26]: 81.7%; viability, T/C [27]: 78.1%; viability, T/C [28]: 47%; viability, T/C [29]: 27%; viability, T/C [30]: 12.2% |
